# Inconclusive results are not listed. Numbered stars: 1 amine (or outer) side, 2 acyl side, 3 side chain; on linkers, the order of the positions; unused ones are H or OH. Bridge positions count the residues as written; N and C are the ends. Square brackets hold non-standard residues; d marks the D form. Peptide text beside a SMILES is read from it. I, II: the chains in the order shown. * marks the point of attachment. ξ: configuration not given here. Quinaldoyl(3-OH,6-OMe) = COc1ccc2nc(C(=O)*)c(O)cc2c1; X2 = CC(=O)OC1CC=NN([*:1])C1C(=O)[*:2]; ξNMeVal(3-OH) = CNC(C(=O)O)C(C)(C)O; X3 = O=C(C1CCCNN1[*:1])[*:2]; Sar = CNCC(=O)O
# Test system: BDF1 mice, M5076 sarcoma s.c., survival/tumor T/C
# Assay: NCI In Vivo Anticancer Drug Screen. Data for tumor model Sarcoma M5076 (subcutaneous) in B6D2F1 (BDF1) mice
# Experimental: The antitumor activity of compounds was measured in mice bearing transplantable tumors. Survival or tumor size were measured and the results are expressed as the measurement made in the treated group (T) divided by the measurement made in the vehicle treated control group (C). The tumor model used in this assay is Sarcoma M5076 (subcutaneous) in B6D2F1 (BDF1) mice
# [1] = endpoint: median survival time, dose: 50.0 mg/kg/injection, schedule: Q01DX009 (ip), vehicle: saline with Tween-80, higher = longer survival
# [2] = endpoint: median survival time, dose: 100.0 mg/kg/injection, schedule: Q01DX009 (ip), vehicle: saline with Tween-80, higher = longer survival
# [3] = endpoint: median survival time, dose: 200.0 mg/kg/injection, schedule: Q01DX009 (ip), vehicle: saline with Tween-80, higher = longer survival
# [4] = endpoint: median tumor weight (est.), dose: 50.0 mg/kg/injection, schedule: Q01DX009 (ip), vehicle: saline with Tween-80, higher = larger tumour
# [5] = endpoint: median tumor weight (est.), dose: 100.0 mg/kg/injection, schedule: Q01DX009 (ip), vehicle: saline with Tween-80, higher = larger tumour
# [6] = endpoint: median tumor weight (est.), dose: 200.0 mg/kg/injection, schedule: Q01DX009 (ip), vehicle: saline with Tween-80, higher = larger tumour
compound,measurement,setting,value
CN(C)CCCNc1c2ccccc2nc2cccc([N+](=O)[O-])c12,T/C,"endpoint: mean tumor weight, dose: 2.0 micrograms/kg/injection, schedule: Q02DX011 (ip), vehicle: saline, higher = larger tumour",106 % of control
same,T/C,"endpoint: mean tumor weight, dose: 4.0 micrograms/kg/injection, schedule: Q02DX011 (ip), vehicle: saline, higher = larger tumour",70 % of control
same,T/C,"endpoint: mean tumor weight, dose: 8.0 micrograms/kg/injection, schedule: Q02DX011 (ip), vehicle: saline, higher = larger tumour",97 % of control
same,T/C,"endpoint: mean tumor weight, dose: 16.0 micrograms/kg/injection, schedule: Q02DX011 (ip), vehicle: saline, higher = larger tumour",92 % of control
same,T/C,"endpoint: mean tumor weight, dose: 32.0 micrograms/kg/injection, schedule: Q02DX011 (ip), vehicle: saline, higher = larger tumour",88 % of control
same,T/C,"endpoint: mean tumor weight, dose: 64.0 micrograms/kg/injection, schedule: Q02DX011 (ip), vehicle: saline, higher = larger tumour",65 % of control
same,T/C,"endpoint: median tumor weight (est.), dose: 2.0 micrograms/kg/injection, schedule: Q02DX011 (ip), vehicle: saline, higher = larger tumour",112 % of control
same,T/C,"endpoint: median tumor weight (est.), dose: 4.0 micrograms/kg/injection, schedule: Q02DX011 (ip), vehicle: saline, higher = larger tumour",90 % of control
same,T/C,"endpoint: median tumor weight (est.), dose: 8.0 micrograms/kg/injection, schedule: Q02DX011 (ip), vehicle: saline, higher = larger tumour",95 % of control
same,T/C,"endpoint: median tumor weight (est.), dose: 32.0 micrograms/kg/injection, schedule: Q02DX011 (ip), vehicle: saline, higher = larger tumour",100 % of control
same,T/C,"endpoint: median tumor weight (est.), dose: 64.0 micrograms/kg/injection, schedule: Q02DX011 (ip), vehicle: saline, higher = larger tumour",62 % of control
"COc1ccc2nc(C(=O)NC3COC(=O)C(C(C)(C)O)N(C)C(=O)CN(C)C(=O)CNC(=O)C4CCCNN4C(=O)C(NC(=O)c4nc5ccc(OC)cc5cc4O)COC(=O)C(C(C)(C)O)N(C)C(=O)CN(C)C(=O)CNC(=O)C4C(OC(C)=O)CC=NN4C3=O)c(O)cc2c1 (stereo unspecified) (I: {Quinaldoyl(3-OH,6-OMe)}-S[X2]G[Sar][ξNMeVal(3-OH)] / II: {Quinaldoyl(3-OH,6-OMe)}-S[X3]G[Sar][ξNMeVal(3-OH)]; ester I:1-II:C, I:C-II:1; configuration not given here)",T/C,"endpoint: median survival time, dose: 5.0 micrograms/kg/injection, schedule: Q01DX009 (ip), vehicle: Klucel (hydroxypropylcellulose) (HPC), higher = longer survival",97 % of control
same,T/C,"endpoint: median survival time, dose: 10.0 micrograms/kg/injection, schedule: Q01DX009 (ip), vehicle: Klucel (hydroxypropylcellulose) (HPC), higher = longer survival",86 % of control
same,T/C,"endpoint: median survival time, dose: 20.0 micrograms/kg/injection, schedule: Q01DX009 (ip), vehicle: Klucel (hydroxypropylcellulose) (HPC), higher = longer survival",95 % of control
same,T/C,"endpoint: median survival time, dose: 40.0 micrograms/kg/injection, schedule: Q01DX009 (ip), vehicle: Klucel (hydroxypropylcellulose) (HPC), higher = longer survival",94 % of control
same,T/C,"endpoint: median tumor weight (est.), dose: 5.0 micrograms/kg/injection, schedule: Q01DX009 (ip), vehicle: DMSO, higher = larger tumour",90 % of control
same,T/C,"endpoint: median tumor weight (est.), dose: 10.0 micrograms/kg/injection, schedule: Q01DX009 (ip), vehicle: DMSO, higher = larger tumour",107 % of control
same,T/C,"endpoint: median tumor weight (est.), dose: 20.0 micrograms/kg/injection, schedule: Q01DX009 (ip), vehicle: DMSO, higher = larger tumour",117 % of control
CCN1Cc2c(/C=C/c3ccccc3)nc3ccc(OC)cc3c2N(c2cccc(Cl)c2)C1,T/C,[1],99 % of control
same,T/C,[2],99 % of control
same,T/C,[3],105 % of control
same,T/C,[4],60 % of control
same,T/C,[5],105 % of control
same,T/C,[6],73 % of control
Nc1ccn(C2OC3COC2C3O)c(=O)n1 (stereo unspecified),T/C,"endpoint: median survival time, dose: 50.0 mg/kg/injection, schedule: Q01DX009 (ip), vehicle: saline, higher = longer survival",89 % of control
same,T/C,"endpoint: median survival time, dose: 100.0 mg/kg/injection, schedule: Q01DX009 (ip), vehicle: saline, higher = longer survival",110 % of control
same,T/C,"endpoint: median survival time, dose: 200.0 mg/kg/injection, schedule: Q01DX009 (ip), vehicle: saline, higher = longer survival",102 % of control
same,T/C,"endpoint: median tumor weight (est.), dose: 100.0 mg/kg/injection, schedule: Q01DX009 (ip), vehicle: saline, higher = larger tumour",65 % of control
same,T/C,"endpoint: median tumor weight (est.), dose: 200.0 mg/kg/injection, schedule: Q01DX009 (ip), vehicle: saline, higher = larger tumour",92 % of control
CN(Cc1cnc2nc(N)nc(N)c2n1)c1ccc(C(=O)N[C@@H](CCC(=O)O)C(=O)O)cc1,T/C,"endpoint: median survival time, dose: 0.5 mg/kg/injection, schedule: Q04DX006 (ip), vehicle: saline, higher = longer survival",97 % of control
same,T/C,"endpoint: median survival time, dose: 1.0 mg/kg/injection, schedule: Q04DX006 (ip), vehicle: saline, higher = longer survival",106 % of control
same,T/C,"endpoint: median survival time, dose: 2.0 mg/kg/injection, schedule: Q04DX006 (ip), vehicle: saline, higher = longer survival",97 % of control
same,T/C,"endpoint: median survival time, dose: 4.0 mg/kg/injection, schedule: Q04DX006 (ip), vehicle: saline, higher = longer survival",108 % of control
c1cnc2c(OCCOCCOCCOCCOc3cccc4cccnc34)cccc2c1,T/C,[1],98 % of control
same,T/C,[2],122 % of control
same,T/C,[3],121 % of control
same,T/C,[4],73 % of control
same,T/C,[5],58 % of control
same,T/C,[6],49 % of control
C[c-]1[c-][c-][c-][c-]1.C[c-]1[c-][c-][c-][c-]1.[C-]#[O+].[C-]#[O+].[C-]#[O+].[C-]#[O+].[C-]#[O+].[C-]#[O+].[Mo].[Mo],T/C,[2],111 % of control
same,T/C,[3],94 % of control
COC1C(O)C(C)OC(OC2C(Oc3cccc4c(O)c5c(=O)oc6ccc(C)c7c(=O)oc(c34)c5c67)OC(C)C(O)C2O)C1O (stereo unspecified),T/C,"endpoint: mean tumor weight, dose: 25.0 mg/kg/injection, schedule: Q02DX011 (ip), vehicle: Klucel (hydroxypropylcellulose) (HPC), higher = larger tumour",83 % of control
same,T/C,"endpoint: mean tumor weight, dose: 50.0 mg/kg/injection, schedule: Q02DX011 (ip), vehicle: Klucel (hydroxypropylcellulose) (HPC), higher = larger tumour",96 % of control
same,T/C,"endpoint: mean tumor weight, dose: 100.0 mg/kg/injection, schedule: Q02DX011 (ip), vehicle: Klucel (hydroxypropylcellulose) (HPC), higher = larger tumour",57 % of control
same,T/C,"endpoint: median tumor weight (est.), dose: 50.0 mg/kg/injection, schedule: Q02DX011 (ip), vehicle: Klucel (hydroxypropylcellulose) (HPC), higher = larger tumour",82 % of control
same,T/C,"endpoint: median tumor weight (est.), dose: 100.0 mg/kg/injection, schedule: Q02DX011 (ip), vehicle: Klucel (hydroxypropylcellulose) (HPC), higher = larger tumour",48 % of control

# Reference: PubChem BioAssay AID288 (DTP/NCI, 2004)
